In patent publication US20230357162A1, “COMPOUNDS, COMPOSITIONS AND METHODS” (Denali Therapeutics Inc., priority 2020, published 2023):
Where a name gives a salt, the structure may show the parent alone.

System: IL-1β secretion, THP-1 cells
Experiment: IL-1β secretion assay in PMA-differentiated THP-1 cells stimulated with LPS and nigericin (ELISA readout)
Type: cell-based
Conditions: Homo sapiens, THP-1, inhibition of IL-1β secretion, 25 ng/mL LPS then nigericin
Outline: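 THP-1 cells differentiated with 5 ng/mL PMA for 40 h, primed in serum-free medium with 25 ng/mL LPS for 2 h, then compound (0.5% DMSO) for 1 h before nigericin for 2 h at 37°C. Supernatant IL-1β quantified by ELISA; normalized to high (LPS + 5 µM nigericin) and low (LPS only) controls.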

| SMILES | IC50 (class column of Table 3) | IC50 (numeric column of Table 3) |
| --- | --- | --- |
| CO[C@H]1C[C@H](NC(=O)Cn2nc(C(C)C)c3cc(Br)ccc3c2=O)C1 [Example 78, 2-(6-bromo-1-oxo-4-propan-2-ylphthalazin-2-yl)-N-(3-trans-methoxycyclobutyl)acet amide] | < 10 µM | 1.51 µM |
| CCN1CCC[C@@H](NC(=O)Cn2nc(C(C)C)c3cc(Cl)ccc3c2=O)C1 [Example 79, 2-(6-chloro-1-oxo-4-propan-2-ylphthalazin-2-yl)-N-[(3R)-1-ethylpiperidin-3-yl]acetamide] | < 10 µM | 0.61 µM |
| CC(F)c1nn(CC(=O)Nc2ncccn2)c(=O)c2ccc(Br)cc12 (stereo not drawn) [Example 80, 2-[6-bromo-4-(1-fluoroethyl)-1-oxo-phthalazin-2-yl]-N-pyrimidin-2-yl-acetamide] | < 10 µM | 0.197 µM |
| CC(F)c1nn(CC(=O)Nc2ncccn2)c(=O)c2cc(Br)ccc12 (stereo not drawn) [Example 81, 2-[7-bromo-4-(1-fluoroethyl)-1-oxo-phthalazin-2-yl]-N-pyrimidin-2-yl-acetamide] | > 15 µM | 32 µM |
| O=C(Cn1nc(OC(F)(F)F)c2cc(Br)ccc2c1=O)Nc1ncncc1F [Example 82] | < 10 µM | 1.48 µM |
| O=C(Cn1nc(OC(F)(F)F)c2ccc(Br)cc2c1=O)Nc1ncncc1F [Example 83, 2-[7-Bromo-1-Oxo-4-(Trifluoromethoxy)Phthalazin-2-yl]-N-(5-Fluoropyrimidin-4-yl)Acetamide] | > 15 µM | > 50 µM |
| CC(C)c1nn(CC(=O)NCC2CCCCO2)c(=O)c2ccc(Br)cc12 (stereo not drawn) [Example 84, 2-(6-bromo-1-oxo-4-propan-2-ylphthalazin-2-yl)-N-(oxan-2-ylmethyl)acetamide] | < 10 µM | 3.71 µM |
| CC(C)c1nn(CC(=O)Nc2ncncc2F)c(=O)c2cc(F)c(Br)cc12 [Example 85, 2-(6-bromo-7-fluoro-1-oxo-4-propan-2-ylphthalazin-2-yl)-N-(5-fluoropyrimidin-4-yl)acetamide] | < 10 µM | 0.382 µM |
| CC(C)c1nn(CC(=O)Nc2ncncc2F)c(=O)c2cc(Br)c(F)cc12 [Example 86, 2-(7-bromo-6-fluoro-1-oxo-4-propan-2-ylphthalazin-2-yl)-N-(5-fluoropyrimidin-4-yl)acetamide] | > 15 µM | > 50 µM |
| CC(C)c1nn(CC(=O)Nc2ncncc2F)c(=O)c2cc(C(F)(F)F)ccc12 [Example 88, N-(5-fluoropyrimidin-4-yl)-2-[1-oxo-4-propan-2-yl-7-(trifluoromethyl)phthalazin-2-yl]acetamide] | > 15 µM | > 50 µM |
| CCN1CCC[C@@H](NC(=O)Cn2nc(C(F)(F)F)c3cc(Br)ccc3c2=O)C1 [Example 89, 2-[6-bromo-1-oxo-4-(trifluoromethyl)phthalazin-2-yl]-N-[(3R)-1-ethylpiperidin-3-yl]acetamide] | < 10 µM | 0.764 µM |
| CCN1CCC[C@@H](NC(=O)Cn2nc(C(F)(F)F)c3ccc(Br)cc3c2=O)C1 [Example 90, 2-[7-bromo-1-oxo-4-(trifluoromethyl)phthalazin-2-yl]-N-[(3R)-1-ethylpiperidin-3-yl]acetamide] | < 10 µM | 6.74 µM |
| O=C(Cn1nc(CC(F)(F)F)c2cc(Br)ccc2c1=O)Nc1ncncc1F [Example 91, 2-[6-bromo-1-oxo-4-(2,2,2-trifluoroethyl)phthalazin-2-yl]-N-(5-fluoropyrimidin-4-yl)acetamide] | < 10 µM | 0.489 µM |
| CC(C)c1nn(CC(=O)Nc2ncncc2F)c(=O)c2c(F)cc(Br)cc12 [Example 92, 2-(6-bromo-8-fluoro-1-oxo-4-propan-2-ylphthalazin-2-yl)-N-(5-fluoropyrimidin-4-yl)acetamide] | < 10 µM | 0.741 µM |
| O=C(Cn1nc(C(F)F)c2cc(Br)ccc2c1=O)Nc1ncccn1 [Example 93, 2-[6-bromo-4-(difluoromethyl)-1-oxo-phthalazin-2-yl]-N-pyrimidin-2-yl-acetamide] | < 10 µM | 0.14 µM |
| O=C(Cn1nc(C(F)F)c2ccc(Br)cc2c1=O)Nc1ncccn1 [Example 94, 2-[7-bromo-4-(difluoromethyl)-1-oxo-phthalazin-2-yl]-N-pyrimidin-2-yl-acetamide] | < 10 µM | 6.05 µM |
| O=C(Cn1nc(C(F)F)c2cc(Br)ccc2c1=O)Nc1ncc(F)cn1 [Example 103, 2-[6-bromo-4-(difluoromethyl)-1-oxophthalazin-2-yl]-N-(5-fluoropyrimidin-2-yl)acetamide] | < 10 µM | 0.265 µM |
| O=C(Cn1nc(C(F)F)c2ccc(Br)cc2c1=O)Nc1ncc(F)cn1 [Example 104, 2-[7-bromo-4-(difluoromethyl)-1-oxophthalazin-2-yl]-N-(5-fluoropyrimidin-2-yl)acetamide] | < 10 µM | 6.99 µM |

| SMILES | IC50 (class column of Table 3) | IC50 (numeric column of Table 3) |
| --- | --- | --- |
| O=C(Cn1nc(C(F)F)c2nc(C(F)(F)F)ccc2c1=O)Nc1ncc(F)cn1 [Example 105, 2-[8-(difluoromethyl)-5-oxo-2-(trifluoromethyl)pyrido[2,3-d]pyridazin-6-yl]-N-(5-fluoropyrimidin-2-yl)acetamide] | < 10 µM | 0.614 µM |
| CC(C)c1nn(CC(=O)N[C@@H]2CCCN(C3CCC3)C2)c(=O)c2ccc(Br)cc12 [Example 106, 2-(6-bromo-1-oxo-4-propan-2-ylphthalazin-2-yl)-N-[(3R)-1-cyclobutylpiperidin-3-yl]acetamide] | < 10 µM | 0.058 µM |
| CC(C)c1nn(CC(=O)NCC2CCCN2C(=O)OC(C)(C)C)c(=O)c2ccc(Br)cc12 (stereo not drawn) [Example 107, tert-butyl 2-[[[2-(6-bromo-4-isopropyl-1-oxo-phthalazin-2-yl)acetyl]amino]methyl]pyrrolidine-1-carboxylate] | > 15 µM | > 50 µM |
| CC(C)c1nn(CC(=O)NCC2CCCN2)c(=O)c2ccc(Br)cc12 (stereo not drawn) [Example 108, 2-(6-bromo-1-oxo-4-propan-2-ylphthalazin-2-yl)-N-(pyrrolidin-2-ylmethyl)acetamide HCl salt] | < 10 µM | 8.23 µM |
| CCN1CCCC1CNC(=O)Cn1nc(C(C)C)c2cc(Br)ccc2c1=O (stereo not drawn) [Example 109, 2-(6-bromo-1-oxo-4-propan-2-ylphthalazin-2-yl)-N-[(1-ethylpyrrolidin-2-yl)methyl]acetamide] | < 10 µM | 5.81 µM |
| CC(C)c1nn(CC(=O)Nc2nccc(C(F)(F)F)n2)c(=O)c2ccc(Br)cc12 [Example 110, 2-(6-bromo-1-oxo-4-propan-2-ylphthalazin-2-yl)-N-[4-(trifluoromethyl)pyrimidin-2-yl]acetamide] | < 10 µM | 1.35 µM |
| CC(C)c1nn(CC(=O)Nc2ccc(C3CC3)cn2)c(=O)c2ccc(Br)cc12 [Example 111, 2-(6-bromo-1-oxo-4-propan-2-ylphthalazin-2-yl)-N-(5-cyclopropylpyridin-2-yl)acetamide] | < 10 µM | 0.796 µM |
| CC(C)c1nn(CC(=O)Nc2cnc(Cl)c(F)c2)c(=O)c2ccc(Br)cc12 [Example 112, 2-(6-bromo-1-oxo-4-propan-2-ylphthalazin-2-yl)-N-(6-chloro-5-fluoropyridin-3-yl)acetamide] | < 10 µM | 1.12 µM |
| CC(C)c1nn(CC(=O)Nc2ncc(F)cn2)c(=O)c2ccc(Br)cc12 [Example 113, 2-(6-bromo-1-oxo-4-propan-2-ylphthalazin-2-yl)-N-(5-fluoropyrimidin-2-yl)acetamide] | < 10 µM | 0.035 µM |
| CC(C)c1nn(CC(=O)Nc2ncc(F)cc2C#N)c(=O)c2ccc(Br)cc12 [Example 114, 2-(6-bromo-1-oxo-4-propan-2-ylphthalazin-2-yl)-N-(3-cyano-5-fluoropyridin-2-yl)acetamide] | < 10 µM | 1.77 µM |
| CC(C)c1nn(CC(=O)Nc2ncc(F)cc2Cl)c(=O)c2ccc(Br)cc12 [Example 115, 2-(6-bromo-1-oxo-4-propan-2-ylphthalazin-2-yl)-N-(3-chloro-5-fluoropyridin-2-yl)acetamide] | < 10 µM | 1.53 µM |
| CC(C)c1nn(CC(=O)Nc2cc(C(F)(F)F)nn2C)c(=O)c2ccc(Br)cc12 [Example 116, 2-(6-bromo-1-oxo-4-propan-2-ylphthalazin-2-yl)-N-[2-methyl-5-(trifluoromethyl)pyrazol-3-yl]acetamide] | < 10 µM | 4.6 µM |
| CC(C)c1nn(CC(=O)NC2CC(n3cccn3)C2)c(=O)c2ccc(Br)cc12 (stereo not drawn) [Example 117, 2-(6-bromo-1-oxo-4-propan-2-ylphthalazin-2-yl)-N-(3-pyrazol-1-ylcyclobutyl)acetamide] | < 10 µM | 6.45 µM |
| CC(C)c1nn(CC(=O)NC23CC(F)(C2)C3)c(=O)c2ccc(Br)cc12 [Example 118, 2-(6-bromo-1-oxo-4-propan-2-ylphthalazin-2-yl)-N-(3-fluoro-1-bicyclo[1.1.1]pentanyl)a cetamide] | < 10 µM | 0.737 µM |
| CC(C)c1nn(CC(=O)Nc2ccc(C#N)cn2)c(=O)c2ccc(Br)cc12 [Example 119, 2-(6-bromo-1-oxo-4-propan-2-ylphthalazin-2-yl)-N-(5-cyanopyridin-2-yl)acetamide] | < 10 µM | 0.163 µM |
| CC(C)c1nn(CC(=O)Nc2ncc(Cl)cn2)c(=O)c2ccc(Br)cc12 [Example 120, 2-(6-bromo-1-oxo-4-propan-2-ylphthalazin-2-yl)-N-(5-chloropyrimidin-2-yl)acetamide] | < 10 µM | 0.025 µM |
| CC(C)c1nn(CC(=O)Nc2ccnnc2)c(=O)c2ccc(Br)cc12 [Example 121, 2-(6-bromo-1-oxo-4-propan-2-ylphthalazin-2-yl)-N-pyridazin-4-ylacetamide] | < 10 µM | 0.423 µM |
| CC(C)c1nn(CC(=O)Nc2cncc(F)c2)c(=O)c2ccc(Br)cc12 [Example 122, 2-(6-bromo-1-oxo-4-propan-2-ylphthalazin-2-yl)-N-(5-fluoropyridin-3-yl)acetamide] | < 10 µM | 1.28 µM |
